According to ChEMBL document CHEMBL1158084, “Cytotoxic diterpenoids from the soft coral Sarcophyton crassocaule” (J Nat Prod, 2006):
Values after ≈ are worked out from the molar mass of the structure shown.

Test system: KB
Test: Cytotoxicity against human KB cells
Format: functional, cell-based

Compound	IC50 [µg/mL]
COC(=O)/C1=C\[C@@H]2O[C@@]2(C(C)C)CC/C(C(=O)OC)=C/CC[C@]2(C)O[C@H]2CC1	5 (≈ 12.7 µM)
COC(=O)/C1=C\C=C(\C(C)C)CCC2=CCC[C@](C)(OC2=O)[C@@H](OC(C)=O)CC1 [EMBLIDE]	5 (≈ 12.4 µM)
COC(=O)/C1=C/C=C(/C(C)C)CCC2=CCC[C@](C)(OC2=O)[C@H](OC(C)=O)CC1 [SARCRASSIN D]	4 (≈ 9.89 µM)
COC(=O)/C1=C/C=C(/C(C)C)CCC2=CCC[C@](C)(OC2=O)C(=O)CC1 [SARCRASSIN E]	13 (≈ 36.1 µM)
